Read-outs that look alike come from different tables or passages of the source.
Legend:
[1] = system: tadpole; test: Anesthetic potency obtained by use of a tadpole; assay type: in vivo; conditions: Table 6; potency converted to gaseous system; partial pressure ratio, methanol as 1.00
[2] = system: tadpole; conditions: cited from earlier work
[3] = system: tadpole; test: Anesthetic potency obtained by use of a tadpole; conditions: in vivo
Source text: In Table 3, potency is a value representing intensity of the anesthetics and is shown as values obtained by use of a tadpole.

[4] = gas phase
Source text: At point B in FIG. 9, the coated crystal oscillator or crystal is removed from the cell into atmosphere with the result that the frequency reverts soon to the same as at point A in FIG. 9, at which the coated crystal oscillator or crystal is placed in the cell. […] In the determination of adsorbed amounts from frequency changes thus obtained, the adsorbed amount is represented in terms of partition coefficient obtained by dividing the adsorbed amount by the total weight of the odorous substance molecules actually existing in the gas phase in order to cancel differences in vapor pressure in the gas phase.

[5] = for Adsorbed amounts / Frequency Changes -ΔF: Example 9, 2C18 N^+ 2C1 /PSS^-, halothane 9.48×10^-4 M aqueous
Description: In FIG. 6, the immobilized bilayer film is cast on a silver-deposited electrode 2 of the crystal oscillator 1 [or on both sides of a silver-electrode-deposited piezoelectric crystal (9 MHz; AT-cut)] and dipped into deionized water in cell 3, bitter or odorous substances are injected thereinto as a solution thereof through an irritant-injecting device 4, frequency changes after the injection are measured by a frequency measuring means (not shown) constituting the crystal oscillator 1, and adsorbed amounts of bitter or odorous substances onto the immobilized bilayer film are determined from proportionality thereof to the frequency changes thus obtained.
The partition coefficient means a ratio of the adsorbed amount of an irritant such as the bitter or odorous substance or the like onto the immobilized bilayer film to an amount by weight of the irritant such as the bitter or odorous substance or the like in the aqueous solution of a constant volume.
Since frequency changes of 10 Hz or less are considered to be within errors in measurements, the concentration at the frequency change of 10 Hz is defined as a concentration threshold value.

[6] = Comparative Example 6; Polyvinyl chloride, 45° C.; halothane 9.48×10^-4 M
[7] = Adsorption from aqueous phase on polystyrene film
[8] = Example 11; CTAB^+ /PSS^-; halothane 9.48×10^-4 M
[9] = Example 10; Cholesterylammonium poly(p-styrenesulfonate); halothane 9.48×10^-4 M
[10] = Adsorption from aqueous phase on poly(methyl-L-glutamate) film
[11] = Adsorption from aqueous phase on polyvinyl alcohol film
[12] = Adsorption from aqueous phase on uncoated crystal oscillator
[13] = Table 3, tadpole, intensity of the anesthetic
[14] = Table 6, concentration ratio of aqueous solution, methanol as 1.00
[15] = Comparative Example 5, Polystyrene, 45° C., halothane 9.48×10^-4 M
[16] = Comparative Example 8, PMLG, halothane 9.48×10^-4 M
[17] = Comparative Example 7, Polyvinyl alcohol, 45° C., halothane 9.48×10^-4 M

In the case of `CCOCC` [diethyl ether], the Potency atm [1] was 6.43.
For `COC(F)(F)C(Cl)Cl` [methoxyflurane], the Potency [2, 13] is given as 4.86 × 10^3 and the Potency atm [3] is given as 1.82 × 10^4.
In the case of `CC(=O)/C=C/C1=C(C)CCCC1(C)C` [β-ionone], the “frequency change in saturated vapor” value ([4]; Example 6, FIG. 9) was “the frequency rapidly decreases and then becomes constant soon” and the reversibility of adsorption ([5]; 45° C., strychnine 58.3 μM, β-ionone 125 μM, FIG. 7, FIG. 8) was “reversible”.
For `ClC(Cl)Cl` [chloroform], the Potency [2, 13] is listed as 7.62 × 10^2 and the Potency atm [1] is listed as 4.62 × 10^2.
With `CC1OC(C)OC(C)O1` (centres unmarked) [paraldehyde] the Potency atm [3] was 8.20 × 10^2.
In the case of `CO` [methanol], the Potency [2, 13] is given as 1.00 and the Potency [2, 14] is given as 1.00.
With `FC(F)(F)C(Cl)Br` (centres unmarked) [halothane] the “adsorption amount versus film thickness” value ([4]; Example 20, 25° C., 2 μl halothane, FIG. 23) was “linearly increased”, the Adsorbed amounts [6] was 74 ng and the “Frequency Changes -ΔF” value [6] was 70 Hz. The Adsorbed amounts [7, 15] was 74 ng, the “Frequency Changes -ΔF” value [7, 15] was 70 Hz and the Adsorbed amounts [8] was 249 ng. The “Frequency Changes -ΔF” value [8] was 237 Hz, the Adsorbed amounts [9] was 82 ng and the “Frequency Changes -ΔF” value [9] was 78 Hz. For the same compound, the Adsorbed amounts ([5]; 20° C.) was 101 ng, the “Frequency Changes -ΔF” value ([5]; 20° C.) was 96 Hz and the Adsorbed amounts ([5]; 45° C.) was 318 ng. For the same compound, the “Frequency Changes -ΔF” value ([5]; 45° C.) was 303 Hz, the “adsorbed amount versus film thickness” value ([5]; Example 14, aqueous, 45° C., halothane 3.00×10^-4 M, FIG. 19) was “increased with increased film thickness” and the Potency [2, 13] was 4.47 × 10^3. For the same compound, the Adsorbed amounts [10, 16] was 176 ng, the “Frequency Changes -ΔF” value [10, 16] was 168 Hz and the Adsorbed amounts [11, 17] was 53 ng. For the same compound, the “Frequency Changes -ΔF” value [11, 17] was 50 Hz and the Potency atm [3] was 1.72 × 10^3.
In the case of `CCCCC` [pentane], the Potency [2, 13] is listed as 1.51 × 10^4 and the Potency atm [3] is listed as 3.34 × 10^3.
In the case of `CCCCCC` [hexane], the Potency [2, 13] is given as 6.75 × 10^4 and the Potency atm [1] is given as 5.21 × 10^4.
For `OCc1ccccc1` [benzylalcohol], the Potency [2, 13] is listed as 5.01 × 10^2 and the Potency atm [3] is listed as 6.25 × 10^5.
In the case of `O=C1C[C@@H]2OCC=C3CN4CC[C@]56c7ccccc7N1[C@H]5[C@H]2[C@H]3C[C@H]46` [Strychnine, strychnine], the “frequency changes due to adsorption” value ([12]; Comparative Example 3, uncoated, regardless of temperature, FIG. 12) was “little or no frequency changes”, the “Partition Coefficient” value ([12]; Table 2, coating: None) was 0.03 10^-3 and the “frequency changes due to adsorption” value ([7]; Comparative Example 4, polystyrene-coated, regardless of temperature, FIG. 12) was “very little frequency changes”. The “Partition Coefficient” value ([7]; Table 2, coating: Polystyrene film) was 0.05 10^-3, the “Partition Coefficient” value ([10]; Table 2, coating: Polymethyl-L-glutamate film) was 0.02 10^-3 and the “Partition Coefficient” value ([11]; Table 2, coating: Polyvinyl alcohol film) was 0.03 10^-3.
In the case of `CCO` [ethanol], the Potency [2, 13] is listed as 2.43, the Potency [2, 14] is listed as 2.43 and the Potency atm [1] is listed as 5.19.
For `CC(C)=O` [acetone], the Potency [2, 13] is listed as 3.47, the Potency [2, 14] is listed as 3.47 and the Potency atm [1] is listed as 1.76.
For `CCCCCCCCO` [1-octanol], the Potency [2, 13] is listed as 7.93 × 10^3 and the Potency atm [3] is listed as 1.21 × 10^7.
In the case of `CCCCCCO` [1-hexanol], the Potency [2, 13] is listed as 1.12 × 10^3.
For `CCCCCCCCCCO` [1-decanol], the Potency [2, 13] is given as 1.00 × 10^5 and the Potency atm [1] is given as 1.11 × 10^9.
For `CCCCO` [1-butanol], the Potency atm [1] was 9.41 × 10^2.
In the case of `CCCCCCCCCO` [1-nonanol], the Potency [2, 13] is given as 4.03 × 10^4 and the Potency atm [3] is given as 2.51 × 10^8.
